Experimental findings from patent US11173162B2, “Bicyclic heterocycles as FGFR4 inhibitors” (Incyte Corporation, priority 2015, dated 2021) are described below.

Bounds are passed on as bounds.

This test has as its system FGFR3 enzyme. Put plainly: FGFR Enzymatic Assay (FRET peptide phosphorylation), FGFR3. Format: biochemical. As to conditions: IC50 ratio showing FGFR3 selectivity; Table 2A, pre-incubated for 4 hours. As to the method: The inhibitor potency of the exemplified compounds was measured in an enzyme assay that measures peptide phosphorylation using FRET measurements to detect product formation. Inhibitors were serially diluted in DMSO and a volume of 0.5 μL was transferred to the wells of a 384-well plate.
GraphPad prism3 was used to analyze the data.
In the case of `COc1ccc(CN2C(=O)N(c3c(F)c(OC)cc(OC)c3F)Cc3cnc(-c4cn(C)nc4C)cc32)cn1` [Example 59, 3-(2,6-difluoro-3,5-dimethoxyphenyl)-7-(1,3-dimethyl-1H-pyrazol-4-yl)-1-((6-methoxypyridin-3-yl)methyl)-3,4-dihydropyrido[4,3-d]pyrimidin-2(1H)-one], the FGFR1/FGFR3 is on record as over 10 and the FGFR4/FGFR3 was over 10.

Turning to `COc1cc(OC)c(F)c(N2Cc3cnc(-c4cnn(CCN5CCC(OC)C5)c4)cc3C3(CC3)C2=O)c1F` (stereo not shown) [Example 161, 2′-(2,6-difluoro-3,5-dimethoxyphenyl)-6′-(1-(2-(3-methoxypyrrolidin-1-yl)ethyl)-1H-pyrazol-4-yl)-1′H-spiro[cyclopropane-1,4′-[2,7]naphthyridin]-3′(2′H)-one], the FGFR1/FGFR3 was over 5 and the FGFR4/FGFR3 is given as over 3.

On to `CCN1C(=O)N(c2c(F)c(OC)cc(OC)c2F)Cc2cnc(-c3ccc(C(=O)NC4CC4)nc3)cc21` [Example 176, N-cyclopropyl-5-(3-(2,6-difluoro-3,5-dimethoxyphenyl)-1-ethyl-2-oxo-1,2,3,4-tetrahydropyrido[4,3-d]pyrimidin-7-yl)picolinamide], for which the FGFR1/FGFR3 was over 10 and the FGFR4/FGFR3 is over 5.

With `COc1cc(OC)c(F)c(N2Cc3cnc(-c4cn(CCC#N)nc4C)cc3C3(CC3)C2=O)c1F` [Example 156, 3-(4-(2′-(2,6-difluoro-3,5-dimethoxyphenyl)-3′-oxo-2′,3′-dihydro-1′H-spiro[cyclopropane-1,4′-[2,7]naphthyridine]-6′-yl)-3-methyl-1H-pyrazol-1-yl)propanenitrile], the FGFR1/FGFR3 is reported as over 5 and the FGFR4/FGFR3 is listed as over 1.

Take `CCN1C(=O)N(c2c(F)c(OC)cc(OC)c2F)Cc2cnc(-c3ccc(C4(C#N)CCC4)nc3)cc21` [Example 27, 1-(5-(3-(2,6-difluoro-3,5-dimethoxyphenyl)-1-ethyl-2-oxo-1,2,3,4-tetrahydropyrido[4,3-d]pyrimidin-7-yl)pyridin-2-yl)cyclobutanecarbonitrile]: the FGFR1/FGFR3 was over 10 and the FGFR4/FGFR3 is given as over 10.

Take `COc1cc(OC)c(F)c(N2Cc3cnc(-c4cn(C)nc4C)cc3N(c3cccc(-c4cnnn4C)c3)C2=O)c1F` [Example 89, 3-(2,6-difluoro-3,5-dimethoxyphenyl)-7-(1,3-dimethyl-1H-pyrazol-4-yl)-1-(3-(1-methyl-1H-1,2,3-triazol-5-yl)phenyl)-3,4-dihydropyrido[4,3-d]pyrimidin-2(1H)-one]: the FGFR1/FGFR3 is over 5 and the FGFR4/FGFR3 is over 10.

As to `COc1cc(OC)c(F)c(N2Cc3cnc(-c4cn(CC(=O)N5CCOCC5)nc4C)cc3C3(CC3)C2=O)c1F` [Example 159, 2′-(2,6-difluoro-3,5-dimethoxyphenyl)-6′-(3-methyl-1-(2-morpholino-2-oxoethyl)-1H-pyrazol-4-yl)-1′H-spiro[cyclopropane-1,4′-[2,7]naphthyridin]-3′(2′H)-one], the FGFR1/FGFR3 is listed as over 5 and the FGFR4/FGFR3 was over 3.

On to `COc1cc(OC)c(F)c(N2Cc3cnc(-c4cn(Cc5cccnc5)nc4C)cc3C3(CC3)C2=O)c1F` [Example 155, 2′-(2,6-difluoro-3,5-dimethoxyphenyl)-6′-(3-methyl-1-(pyridin-3-ylmethyl)-1H-pyrazol-4-yl)-1′H-spiro[cyclopropane-1,4′-[2,7]naphthyridin]-3′(2′H)-one], for which the FGFR1/FGFR3 is over 5 and the FGFR4/FGFR3 is reported as over 1.

For the compound `CCCNC(=O)c1ccc(-c2cc3c(cn2)CN(c2c(F)c(OC)cc(OC)c2F)C(=O)N3CC)cn1` [Example 179, 5-(3-(2,6-difluoro-3,5-dimethoxyphenyl)-1-ethyl-2-oxo-1,2,3,4-tetrahydropyrido[4,3-d]pyrimidin-7-yl)-N-propylpicolinamide], the FGFR1/FGFR3 was over 5 and the FGFR4/FGFR3 is recorded as over 10.

As for `COC(=O)Nc1ccc(N2C(=O)N(c3c(F)c(OC)cc(OC)c3F)Cc3cnc(-c4cn(C)nc4C)cc32)cc1` [Example 123, Methyl 4-(3-(2,6-difluoro-3,5-dimethoxyphenyl)-7-(1,3-dimethyl-1H-pyrazol-4-yl)-2-oxo-3,4-dihydropyrido[4,3-d]pyrimidin-1(2H)-yl)phenylcarbamate], the FGFR1/FGFR3 is on record as over 5 and the FGFR4/FGFR3 was over 3.

Regarding `COc1cc(OC)c(F)c(N2Cc3cnc(-c4cnn(CC5CN(C(C)=O)C5)c4)cc3C3(CC3)C2=O)c1F` [Example 167, 6′-(1-((1-acetylazetidin-3-yl)methyl)-1H-pyrazol-4-yl)-2′-(2,6-difluoro-3,5-dimethoxyphenyl)-1′H-spiro[cyclopropane-1,4′-[2,7]naphthyridin]-3′(2′H)-one], the FGFR1/FGFR3 is reported as over 3 and the FGFR4/FGFR3 is listed as over 3.

Regarding `COc1cc(OC)c(F)c(N2Cc3cnc(-c4cn(C)nc4C)cc3N(Cc3cnn(C4CC4)c3)C2=O)c1F` [Example 124, 1-((1-cyclopropyl-1H-pyrazol-4-yl)methyl)-3-(2,6-difluoro-3,5-dimethoxyphenyl)-7-(1,3-dimethyl-1H-pyrazol-4-yl)-3,4-dihydropyrido[4,3-d]pyrimidin-2(1H)-one], the FGFR1/FGFR3 is recorded as over 10 and the FGFR4/FGFR3 was over 10.

Take `COc1cc(OC)c(F)c(N2Cc3cnc(-c4cn(C)nc4C)cc3N(c3ccc(S(C)(=O)=O)cc3)C2=O)c1F` [Example 98, 3-(2,6-difluoro-3,5-dimethoxyphenyl)-7-(1,3-dimethyl-1H-pyrazol-4-yl)-1-(4-(methylsulfonyl)phenyl)-3,4-dihydropyrido[4,3-d]pyrimidin-2(1H)-one]: the FGFR1/FGFR3 is listed as over 5 and the FGFR4/FGFR3 was over 10.

As to `COc1cc(OC)c(F)c(N2Cc3cnc(-c4cn(C5CCN(CC#N)C5)nc4C)cc3C3(CC3)C2=O)c1F` (stereo not shown) [Example 154, 2-(3-(4-(2′-(2,6-difluoro-3,5-dimethoxyphenyl)-3′-oxo-2′,3′-dihydro-1′H-spiro[cyclopropane-1,4′-[2,7]naphthyridine]-6′-yl)-3-methyl-1H-pyrazol-1-yl)pyrrolidin-1-yl)acetonitrile], the FGFR1/FGFR3 is listed as over 5 and the FGFR4/FGFR3 was over 3.

For the compound `CCn1cnc(-c2cc3c(cn2)CN(c2c(F)c(OC)cc(OC)c2F)C(=O)C32CC2)c1` [Example 53, 2′-(2,6-difluoro-3,5-dimethoxyphenyl)-6′-(1-ethyl-1H-imidazol-4-yl)-1′H-spiro[cyclopropane-1,4′-[2,7]naphthyridin]-3′(2′H)-one], the FGFR1/FGFR3 is given as over 5 and the FGFR4/FGFR3 is listed as over 5.

Regarding `COc1cc(OC)c(F)c(N2Cc3cnc(-c4cn(C)nc4C)cc3N(c3ccc(-n4cccn4)cc3)C2=O)c1F` [Example 77, 1-(4-(1H-pyrazol-1-yl)phenyl)-3-(2,6-difluoro-3,5-dimethoxyphenyl)-7-(1,3-dimethyl-1H-pyrazol-4-yl)-3,4-dihydropyrido[4,3-d]pyrimidin-2(1H)-one], the FGFR1/FGFR3 was over 5 and the FGFR4/FGFR3 was over 10.

For the compound `COc1cc(OC)c(F)c(N2Cc3cnc(-c4cn(C)nc4C)cc3N(Cc3csc(C)n3)C2=O)c1F` [Example 95, 3-(2,6-difluoro-3,5-dimethoxyphenyl)-7-(1,3-dimethyl-1H-pyrazol-4-yl)-1-((2-methylthiazol-4-yl)methyl)-3,4-dihydropyrido[4,3-d]pyrimidin-2(1H)-one], the FGFR1/FGFR3 was over 5 and the FGFR4/FGFR3 was over 10.

As for `CCN1C(=O)N(c2c(F)c(OC)cc(OC)c2F)Cc2cnc(-c3cn(CC)nc3C)cc21` [Example 168, 3-(2,6-difluoro-3,5-dimethoxyphenyl)-1-ethyl-7-(1-ethyl-3-methyl-1H-pyrazol-4-yl)-3,4-dihydropyrido[4,3-d]pyrimidin-2(1H)-one], the FGFR1/FGFR3 is over 5 and the FGFR4/FGFR3 was over 3.

For the compound `COc1cc(OC)c(F)c(N2Cc3cnc(-c4cn(C)nc4C)cc3N(c3ccc(C(=O)N(C)C)cc3)C2=O)c1F` [Example 113, 4-(3-(2,6-difluoro-3,5-dimethoxyphenyl)-7-(1,3-dimethyl-1H-pyrazol-4-yl)-2-oxo-3,4-dihydropyrido[4,3-d]pyrimidin-1(2H)-yl)-N,N-dimethylbenzamide], the FGFR1/FGFR3 is on record as over 3 and the FGFR4/FGFR3 is reported as over 5.

`COc1cc(OC)c(F)c(N2Cc3cnc(-c4cn(C)nc4C)cc3N(c3ccc4cn[nH]c4c3)C2=O)c1F` [Example 133, 3-(2,6-difluoro-3,5-dimethoxyphenyl)-7-(1,3-dimethyl-1H-pyrazol-4-yl)-1-(1H-indazol-6-yl)-3,4-dihydropyrido[4,3-d]pyrimidin-2(1H)-one]: the FGFR1/FGFR3 is over 3 and the FGFR4/FGFR3 is reported as over 5.

In the case of `CCN1C(=O)N(c2c(F)c(OC)cc(OC)c2F)Cc2cnc(-c3ccc(N4CCOCC4)nc3)cc21` [Example 182, 3-(2,6-difluoro-3,5-dimethoxyphenyl)-1-ethyl-7-(6-morpholinopyridin-3-yl)-3,4-dihydropyrido[4,3-d]pyrimidin-2(1H)-one], the FGFR1/FGFR3 is over 5 and the FGFR4/FGFR3 is given as over 5.

On to `COc1cc(OC)c(F)c(N2Cc3cnc(-c4cnn(CCCN5CCOCC5)c4)cc3C3(CC3)C2=O)c1F` [Example 151, 2′-(2,6-difluoro-3,5-dimethoxyphenyl)-6′-(1-(3-morpholinopropyl)-1H-pyrazol-4-yl)-1′H-spiro[cyclopropane-1,4′-[2,7]naphthyridin]-3′(2′H)-one], for which the FGFR1/FGFR3 is recorded as over 5 and the FGFR4/FGFR3 is given as over 5.

Turning to `COc1cnc(N2C(=O)N(c3c(F)c(OC)cc(OC)c3F)Cc3cnc(-c4cn(C)nc4C)cc32)cn1` [Example 112, 3-(2,6-difluoro-3,5-dimethoxyphenyl)-7-(1,3-dimethyl-1H-pyrazol-4-yl)-1-(5-methoxypyrazin-2-yl)-3,4-dihydropyrido[4,3-d]pyrimidin-2(1H)-one], the FGFR1/FGFR3 is over 3 and the FGFR4/FGFR3 is over 5.
